The text below walks through data of paper PMC11323500, “Functional redundancy of ubiquitin-like sulfur-carrier proteins facilitates flexible, efficient sulfur utilization in the primordial archaeon Thermococcus kodakarensis” (mBio, 2024).

The target in this assay is T1, TK2117 (with TK2118 / UblB) (Thermococcus kodakarensis, UniProt Q5JEX2).
T1 construct: tag removal not mentioned; with Ubiquitin-like sulfur-carrier protein UblB (MoaD family)
T1 sequence (Q5JEX2 1-232): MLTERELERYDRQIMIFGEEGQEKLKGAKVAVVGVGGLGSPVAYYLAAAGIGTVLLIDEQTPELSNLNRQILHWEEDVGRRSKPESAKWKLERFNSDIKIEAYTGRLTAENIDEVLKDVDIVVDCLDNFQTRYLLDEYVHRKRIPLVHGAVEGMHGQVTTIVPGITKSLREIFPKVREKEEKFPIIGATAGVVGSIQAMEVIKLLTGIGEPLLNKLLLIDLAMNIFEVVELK
T1 sequence (Q5JEX1 1-88 partner): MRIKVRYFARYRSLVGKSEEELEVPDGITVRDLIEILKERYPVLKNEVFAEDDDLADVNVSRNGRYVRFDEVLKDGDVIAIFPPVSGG
The experiment in a line: pyrophosphate release measured as phosphate (Biomol Green, inorganic pyrophosphatase). It counts as biochemical. The following applies: 10 mM ATP; 5 mM MgCl2; 4.0 µM TK2117; 10.0 µM TK2118 as co-substrate; pH 8.0; 80 °C.

For `Nc1ncnc2c1ncn2[C@@H]1O[C@H](COP(=O)(O)OP(=O)(O)OP(=O)(O)O)[C@@H](O)[C@H]1O` [ATP], the “pyrophosphate release measured as phosphate (Biomol Green, inorganic pyrophospha)” value was “TK2117 formed pyrophosphate in the presence of TK2118”.
